In ChEMBL document CHEMBL4673251, “Fluorinated 2-Arylcyclopropan-1-amines - A new class of sigma receptor ligands” (Bioorg Med Chem, 2020):
Activity calls are given as the source filed them. The rule behind the calls is not given here.

Legend:
[1] = target: T1, Sigma non-opioid intracellular receptor 1 (Cavia porcellus, UniProt Q60492); assay: Displacement of [3H]-(+)-pentazocine from sigma1 receptor in guinea pig brain membrane incubated for 120 mins by solid scintillation counting method; assay type: cell membranes, Cell membrane
T1 sequence (Q60492 whole entry): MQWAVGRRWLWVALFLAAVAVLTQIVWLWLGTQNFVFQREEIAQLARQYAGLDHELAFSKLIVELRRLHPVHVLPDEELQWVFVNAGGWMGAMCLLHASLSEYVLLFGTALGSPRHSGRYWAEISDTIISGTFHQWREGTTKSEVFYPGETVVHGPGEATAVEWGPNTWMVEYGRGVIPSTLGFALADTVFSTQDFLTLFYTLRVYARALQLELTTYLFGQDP

Sus scrofa = species: Sus scrofa; assay: Displacement of [3H]-(+)-MK-801 from PCP binding site of NMDA receptor in pig brain cortex membranes after 120 mins by solid scintillation counting method; details: Cell membrane
[2] = target: T2, Sigma intracellular receptor 2 (Rattus norvegicus) (UniProt Q5U3Y7); assay: Displacement of [3H]-di-o-tolylguanidine from Sigma 2 receptor in rat liver membrane at 1 uM incubated for 120 mins by solid scintillation counting method; assay type: cell membranes; details: Cell membrane
T2 sequence (whole entry): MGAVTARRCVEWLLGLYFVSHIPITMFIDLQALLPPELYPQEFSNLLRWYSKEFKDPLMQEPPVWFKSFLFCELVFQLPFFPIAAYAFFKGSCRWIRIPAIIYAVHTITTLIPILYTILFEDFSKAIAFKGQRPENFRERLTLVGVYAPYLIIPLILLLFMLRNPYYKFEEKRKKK

[3] = target: Sigma non-opioid intracellular receptor 1 (Cavia porcellus) (UniProt Q60492); assay: Displacement of [3H]-(+)-pentazocine from sigma1 receptor in guinea pig brain membrane at 1 uM incubated for 120 mins by solid scintillation counting method; assay type: cell membranes; details: Cell membrane
Chain of Sigma non-opioid intracellular receptor 1 (Cavia porcellus) (Q60492 whole entry): as the sequence (Q60492 whole entry) above

[4] = target: T3, Sigma intracellular receptor 2 (Rattus norvegicus, UniProt Q5U3Y7); assay: Displacement of [3H]-di-o-tolylguanidine from Sigma 2 receptor in rat liver membrane incubated for 120 mins by solid scintillation counting method; assay type: cell membranes, Cell membrane
T3 sequence (Q5U3Y7 whole entry): T2 sequence (whole entry)

[5] = Dissociation constant, pKa of the compound; assay type: physicochemical
[6] = Displacement of [3H]-di-o-tolylguanidine from Sigma 2 receptor in guinea pig brain membrane incubated for 120 mins by scintillation counting method; assay type: cell membranes, Cavia porcellus, Cell membrane
[7] = target: T1, Sigma non-opioid intracellular receptor 1; assay: Displacement of [3H]-pentazocine from sigma1 receptor in guinea pig brain membrane incubated for 150 mins by scintillation counting method; assay type: cell membranes, Cell membrane

SMILES | Activity (Sus scrofa) | inhibition [2] | inhibition [3] | also measured
NCC1CC1(F)c1ccccc1 (stereo not given) | inactive | 24% |  | Ki [1]: 0.429 µM
COc1ccc(C2(F)CC2N)cc1OC (stereo not given) | inactive |  | 24% | Ki [4]: 3.1 µM
FC1(c2ccccc2)CC1NCc1ccccc1 (stereo not given) | inactive | 0% | 0% | 
NCCC1CC1(F)c1ccccc1 (stereo not given) | inactive | 5% | 24% | 
NC1CC1(F)c1ccc(Cl)cc1 (cis isomer) | inactive |  |  | Ki [1]: 1.5 µM; Ki [4]: 2 µM
COc1cccc(C2(F)CC2N)c1.Cl (cis isomer) |  |  |  | pKa [5]: 6.89
Cc1ccc(C2(F)CC2N)cc1 (cis isomer) | inactive |  | 25% | Ki [4]: 3.1 µM
COc1cccc(C2(F)CC2N)c1 (cis isomer) | inactive |  | 14% | 
NC1CC1(F)c1ccc(S(F)(F)(F)(F)F)cc1 (cis isomer) | inactive |  | 17% | 
NC1CC1(F)c1cccc([N+](=O)[O-])c1 (cis isomer) | inactive | 49% | 13% | 
NC1CC1(F)c1ccccc1 (cis isomer) | inactive | 23% | 30% | 
CNC1CC1(F)c1ccccc1 (racemic) | inactive | 19% | 0% | 
N[C@@H]1C[C@H]1c1ccccc1.N[C@H]1C[C@@H]1c1ccccc1 (racemic) [TRANYLCYPROMINE] |  |  |  | Ki [1]: 1.8 µM; Ki [4]: 6.2 µM
COC(=O)C1(c2ccccc2)CC1CNC12CC3CC(CC(C3)C1)C2 (racemic; cis) |  |  |  | Ki [6]: 0.023 µM; Ki [7]: 0.003 µM
COC(=O)C1(c2ccccc2)CC1CNC12CC3CC(CC(C3)C1)C2 (racemic; trans) |  |  |  | Ki [6]: 0.135 µM; Ki [7]: 0.226 µM
CNC1CC1(F)c1ccccc1 (stereo in doubt; 11a) | inactive | 0% | 0% | 
NC1CC1(F)c1ccc(F)cc1 (stereo in doubt; 17b) [listing 1 of 2 here] |  |  |  | Ki [1]: 0.428 µM; Ki [4]: 2.4 µM
NC1CC1(F)c1ccc(F)cc1 (stereo in doubt; 17b) [listing 2 of 2 here] | inactive |  |  | 
COc1ccc(C2(F)CC2N)cc1 (stereo in doubt; 19b) [listing 1 of 2 here] |  |  |  | Ki [1]: 0.366 µM
COc1ccc(C2(F)CC2N)cc1 (stereo in doubt; 19b) [listing 2 of 2 here] | inactive | 33% |  | 
NC1CC1(F)c1ccc(C(F)(F)F)cc1 (stereo in doubt; 20b) [listing 1 of 2 here] |  |  |  | pKa ([5]; read-out: pKa): 7; Ki [1]: 0.013 µM; Ki [4]: 0.095 µM

SMILES | Activity (Sus scrofa) | inhibition [2] | inhibition [3] | also measured
NC1CC1(F)c1ccc(C(F)(F)F)cc1 (stereo in doubt; 20b) [listing 2 of 2 here] | inactive |  |  | 
NC1(c2ccccc2)CC1(F)c1ccccc1 (stereo in doubt; 24b) [listing 1 of 2 here] |  |  |  | Ki [1]: 0.527 µM; Ki [4]: 7.1 µM
NC1(c2ccccc2)CC1(F)c1ccccc1 (stereo in doubt; 24b) [listing 2 of 2 here] | inactive |  |  | 
NC1CC1(F)c1ccc([N+](=O)[O-])cc1 (stereo in doubt; 25b) | inactive | 53% | 1% | 
NC1CC1(F)c1cccc(F)c1 (stereo in doubt; 27b) | inactive | 16% | 0% | 
NC1CC1(F)c1ccc(F)cc1 (trans isomer) [listing 1 of 2 here] |  |  |  | Ki [4]: 1.2 µM
NC1CC1(F)c1ccc(C(F)(F)F)cc1 (trans isomer) [listing 1 of 2 here] |  |  |  | Ki [1]: 1.9 µM; Ki [4]: 0.911 µM
COc1cccc(C2(F)CC2N)c1 (trans isomer) [listing 1 of 2 here] |  |  |  | pKa ([5]; read-out: pKa): 6.63
NC1(c2ccccc2)CC1(F)c1ccccc1 (trans isomer) [listing 1 of 2 here] |  |  |  | Ki [1]: 0.399 µM; Ki [4]: 2.3 µM
COc1ccc(C2(F)CC2N)cc1 (trans isomer) [listing 1 of 2 here] |  |  |  | pKa ([5]; read-out: pKa): 7.5; Ki [1]: 0.0048 µM
NC1CC1(F)c1ccc(S(F)(F)(F)(F)F)cc1 (trans isomer) [listing 1 of 2 here] |  |  |  | Ki [1]: 0.66 µM
COc1ccc(C2(F)CC2N)cc1 (trans isomer) [listing 2 of 2 here] | inactive | 32% |  | 
COc1cccc(C2(F)CC2N)c1 (trans isomer) [listing 2 of 2 here] | inactive |  | 25% | 
Fc1cccc(C2(F)CC2NCc2ccccc2)c1 (trans isomer) | inactive | 0% | 0% | 
NC1(c2ccccc2)CC1(F)c1ccccc1 (trans isomer) [listing 2 of 2 here] | inactive |  |  | 
NC1CC1(F)c1ccc(C(F)(F)F)cc1 (trans isomer) [listing 2 of 2 here] | inactive |  |  | 
NC1CC1(F)c1ccc(F)cc1 (trans isomer) [listing 2 of 2 here] | inactive |  | 27% | 
NC1CC1(F)c1ccc(S(F)(F)(F)(F)F)cc1 (trans isomer) [listing 2 of 2 here] | inactive |  |  | 
NC1CC1(F)c1ccc([N+](=O)[O-])cc1 (trans isomer) | inactive | 0% | 13% | 
NC1CC1(F)c1cccc(F)c1 (trans isomer) | inactive | 31% | 0% | 
NC1CC1(F)c1cccc([N+](=O)[O-])c1 (trans isomer) | inactive | 18% | 16% | 
